Laboratory results taken from ChEMBL document CHEMBL4256946, “Thiourea compounds and their use as inhibitors of sirt2 or sirt5” (2016).
One block for each compound: values may come before it. Calls of active or inactive are those of the source. The rule behind the calls is not given here.

Key:
[1] = molecular target: T1, NAD-dependent protein deacetylase sirtuin-3, mitochondrial (Homo sapiens, UniProt Q9NTG7); test: Inhibition of SIRT3 (unknown origin) assessed as reduction in enzyme-catalyzed desuccinylation reaction
T1 sequence (Q9NTG7 whole entry): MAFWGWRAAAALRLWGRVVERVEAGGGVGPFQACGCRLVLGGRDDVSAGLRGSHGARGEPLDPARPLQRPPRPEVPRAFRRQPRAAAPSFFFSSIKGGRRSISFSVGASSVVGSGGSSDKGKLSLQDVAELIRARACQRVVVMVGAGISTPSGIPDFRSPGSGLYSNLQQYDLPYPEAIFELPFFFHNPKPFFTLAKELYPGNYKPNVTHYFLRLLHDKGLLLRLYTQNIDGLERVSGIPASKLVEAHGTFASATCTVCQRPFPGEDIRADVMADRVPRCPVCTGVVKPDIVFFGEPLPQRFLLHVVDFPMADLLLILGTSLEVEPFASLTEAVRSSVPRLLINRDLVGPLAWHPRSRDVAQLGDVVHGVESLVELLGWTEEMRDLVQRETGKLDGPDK

MCF7 [2] = test: Inhibition of foci formation in human MCF7 cells at 10 to 100 uM; assay type: functional, cell-based
MDA-MB-231 = test: Inhibition of foci formation in human MDA-MB-231 cells at 10 to 100 uM; assay type: functional, cell-based
[3] = molecular target: NAD-dependent protein deacylase sirtuin-5, mitochondrial (Homo sapiens) (UniProt Q9NXA8); test: Inhibition of SIRT5 in human MCF7 cells assessed as increase in protein succinylation level at 100 uM after 48 to 72 hrs by Western blot analysis; assay type: cell-based
MDA-MB-468 = test: Inhibition of foci formation in human MDA-MB-468 cells at 10 to 100 uM; assay type: functional, cell-based
[4] = molecular target: NAD-dependent protein deacylase sirtuin-6 (Homo sapiens, UniProt Q8N6T7); test: Inhibition of SIRT6 (unknown origin) assessed as reduction in enzyme-catalyzed desuccinylation reaction
[5] = molecular target: NAD-dependent protein deacylase sirtuin-5, mitochondrial (Homo sapiens) (UniProt Q9NXA8); test: Inhibition of SIRT5 (unknown origin) assessed as reduction in enzyme-catalyzed desuccinylation reaction at 200 uM
[6] = molecular target: T2, NAD-dependent protein deacetylase sirtuin-2 (Homo sapiens, UniProt Q8IXJ6); test: Inhibition of SIRT2 (unknown origin) assessed as reduction in enzyme-catalyzed desuccinylation reaction
T2 sequence (Q8IXJ6 whole entry): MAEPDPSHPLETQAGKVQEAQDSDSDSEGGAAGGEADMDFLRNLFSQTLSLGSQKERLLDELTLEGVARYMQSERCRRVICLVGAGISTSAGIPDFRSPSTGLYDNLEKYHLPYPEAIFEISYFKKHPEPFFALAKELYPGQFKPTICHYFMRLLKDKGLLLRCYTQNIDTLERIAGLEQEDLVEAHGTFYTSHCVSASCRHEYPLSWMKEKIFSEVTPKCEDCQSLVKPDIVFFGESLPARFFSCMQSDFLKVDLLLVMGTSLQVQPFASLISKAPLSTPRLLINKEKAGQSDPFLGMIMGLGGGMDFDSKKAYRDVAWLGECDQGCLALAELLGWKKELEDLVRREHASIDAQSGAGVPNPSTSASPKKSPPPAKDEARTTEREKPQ

MCF7 [7] = test: Growth inhibition of human MCF7 cells at 25 uM incubated for 10 days by crystal violet staining based assay; assay type: functional, cell-based
[8] = molecular target: T3, NAD-dependent protein deacetylase sirtuin-1 (Homo sapiens, UniProt Q96EB6); test: Inhibition of SIRT1 (unknown origin) assessed as reduction in enzyme-catalyzed desuccinylation reaction
T3 sequence (Q96EB6 whole entry): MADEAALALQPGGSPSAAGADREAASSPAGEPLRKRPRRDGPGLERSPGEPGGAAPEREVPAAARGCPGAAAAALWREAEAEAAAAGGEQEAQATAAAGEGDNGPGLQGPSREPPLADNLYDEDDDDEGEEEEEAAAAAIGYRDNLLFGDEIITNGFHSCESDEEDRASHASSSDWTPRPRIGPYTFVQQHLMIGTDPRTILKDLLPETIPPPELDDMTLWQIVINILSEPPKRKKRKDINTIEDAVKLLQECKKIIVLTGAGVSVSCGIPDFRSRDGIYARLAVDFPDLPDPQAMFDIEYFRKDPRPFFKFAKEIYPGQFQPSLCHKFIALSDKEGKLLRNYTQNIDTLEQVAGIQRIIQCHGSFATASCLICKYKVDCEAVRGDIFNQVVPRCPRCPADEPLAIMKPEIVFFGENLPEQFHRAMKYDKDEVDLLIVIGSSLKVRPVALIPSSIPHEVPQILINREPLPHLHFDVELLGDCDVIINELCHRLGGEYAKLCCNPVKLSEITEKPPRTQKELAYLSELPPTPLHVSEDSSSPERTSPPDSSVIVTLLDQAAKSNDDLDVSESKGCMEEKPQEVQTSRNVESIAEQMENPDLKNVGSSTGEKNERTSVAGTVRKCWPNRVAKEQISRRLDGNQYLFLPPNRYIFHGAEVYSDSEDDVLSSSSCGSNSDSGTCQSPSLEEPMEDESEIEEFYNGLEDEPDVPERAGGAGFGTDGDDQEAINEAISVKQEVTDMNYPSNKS

[9] = molecular target: T4, NAD-dependent protein deacetylase sirtuin-2 (Homo sapiens) (UniProt Q8IXJ6); test: Inhibition of SIRT2 (unknown origin) assessed as reduction in enzyme-catalyzed desuccinylation reaction at 256 uM
T4 sequence (whole entry): T2 sequence (Q8IXJ6 whole entry)

[10] = molecular target: T5, NAD-dependent protein deacetylase sirtuin-1 (Homo sapiens) (UniProt Q96EB6); test: Inhibition of SIRT1 (unknown origin) assessed as reduction in enzyme-catalyzed desuccinylation reaction at 256 uM
T5 sequence (whole entry): T3 sequence (Q96EB6 whole entry)

[11] = molecular target: NAD-dependent protein deacylase sirtuin-5, mitochondrial (Homo sapiens) (UniProt Q9NXA8); test: Inhibition of SIRT5 in human HeLa cells assessed as increase in protein succinylation level at 100 uM after 24 to 48 hrs by Western blot analysis; assay type: cell-based
[12] = molecular target: NAD-dependent protein deacylase sirtuin-5, mitochondrial (Homo sapiens) (UniProt Q9NXA8); test: Substrate activity at SIRT5 (unknown origin) assessed as compound-NAD covalent intermediate formation by measuring parent compound consumption measured after 18 hrs by liquid chromatography-mass spectrometry method
[13] = molecular target: NAD-dependent protein deacylase sirtuin-5, mitochondrial (Homo sapiens) (UniProt Q9NXA8); test: (§1) Substrate activity at SIRT5 (unknown origin) assessed as compound-NAD covalent intermediate formation by measuring 3-((3aR,5R,6R,6aR)-5-((((((2R,3S,4R,5R)-5-(6-amino-9H-purin-9-yl)-3,4-dihydroxytetrahydrofuran-2-yl)methoxy)(hydroxy)phosphoryloxy)(hydroxy)phosphoryloxy)methyl)-2-((S)-5-(benzyloxycarbonylamino)-6-oxo-6-(phenylamino)hexylamino)-6-hydroxytetrahydrofuro[2,3-d][1,3]oxathiol-2-ylamino)propanoic acid level measured after 15 mins by liquid chromatography-mass spectrometry method
[14] = molecular target: NAD-dependent protein deacylase sirtuin-5, mitochondrial (Homo sapiens) (UniProt Q9NXA8); test: Substrate activity at SIRT5 (unknown origin) assessed as compound-NAD covalent intermediate formation by measuring (S)-3,11-dioxo-1-phenyl-5-(phenylcarbamoyl)-2-oxa-4,10,12-triazapentadecan-15-oic acid level measured after 18 hrs by liquid chromatography-mass spectrometry method
[15] = molecular target: NAD-dependent protein deacylase sirtuin-5, mitochondrial (Homo sapiens) (UniProt Q9NXA8); test: (§2) Substrate activity at SIRT5 (unknown origin) assessed as compound-NAD covalent intermediate formation by measuring 2-((2R,3R,4S,5R)-5-((((((2R,3S,4R,5R)-5-(6-amino-9H-purin-9-yl)-3,4-dihydroxytetrahydrofuran-2-yl)methoxy)(hydroxy)phosphoryloxy)(hydroxy)phosphoryloxy)methyl)-3,4-dihydroxytetrahydrofuran-2-yl)-1-((S)-5-(benzyloxycarbonylamino)-6-oxo-6-(phenylamino)hexyl)-3-(2-carboxyethyl)isothiouronium level measured after 15 mins by liquid chromatography-mass spectrometry method
[16] = molecular target: NAD-dependent protein deacylase sirtuin-5, mitochondrial (Homo sapiens) (UniProt Q9NXA8); test: (§3) Substrate activity at SIRT5 (unknown origin) assessed as compound-NAD covalent intermediate formation by measuring 2-((2R,3R,4R,5R)-5-((((((2R,3S,4R,5R)-5-(6-amino-9H-purin-9-yl)-3,4-dihydroxytetrahydrofuran-2-yl)methoxy)(hydroxy)phosphoryloxy)(hydroxy)phosphoryloxy)methyl)-4-hydroxy-2-mercaptotetrahydrofuran-3-yl)-1-((S)-5-(benzyloxycarbonylamino)-6-oxo-6-(phenylamino)hexyl)-3-(2-carboxyethyl)isouronium level measured after 15 mins by liquid chromatography-mass spectrometry method
[17] = molecular target: NAD-dependent protein deacylase sirtuin-5, mitochondrial (Homo sapiens) (UniProt Q9NXA8); test: as §2, with “5 hrs” for “15 mins”
[18] = molecular target: NAD-dependent protein deacylase sirtuin-5, mitochondrial (Homo sapiens) (UniProt Q9NXA8); test: Mechanism based inhibition of SIRT5 (unknown origin) incubated in presence of NAD for 15 mins by liquid chromatography-mass spectrometry method
[19] = molecular target: NAD-dependent protein deacylase sirtuin-5, mitochondrial (Homo sapiens) (UniProt Q9NXA8); test: as §3, with “7 hrs” for “15 mins”
[20] = molecular target: NAD-dependent protein deacylase sirtuin-5, mitochondrial (Homo sapiens) (UniProt Q9NXA8); test: as §1, with “5 hrs” for “15 mins”

NAD-dependent protein deacylase sirtuin-5, mitochondrial (Homo sapiens), sequence (Q9NXA8 37-310 limits assumed): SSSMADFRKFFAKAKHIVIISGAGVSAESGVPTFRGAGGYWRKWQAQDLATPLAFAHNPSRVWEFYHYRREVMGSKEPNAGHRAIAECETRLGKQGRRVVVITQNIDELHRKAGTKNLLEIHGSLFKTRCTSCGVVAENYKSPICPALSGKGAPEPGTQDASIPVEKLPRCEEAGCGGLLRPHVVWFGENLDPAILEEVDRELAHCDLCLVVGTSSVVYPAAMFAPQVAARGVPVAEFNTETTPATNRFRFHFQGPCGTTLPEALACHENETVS
NAD-dependent protein deacylase sirtuin-6, sequence (Q8N6T7 whole entry): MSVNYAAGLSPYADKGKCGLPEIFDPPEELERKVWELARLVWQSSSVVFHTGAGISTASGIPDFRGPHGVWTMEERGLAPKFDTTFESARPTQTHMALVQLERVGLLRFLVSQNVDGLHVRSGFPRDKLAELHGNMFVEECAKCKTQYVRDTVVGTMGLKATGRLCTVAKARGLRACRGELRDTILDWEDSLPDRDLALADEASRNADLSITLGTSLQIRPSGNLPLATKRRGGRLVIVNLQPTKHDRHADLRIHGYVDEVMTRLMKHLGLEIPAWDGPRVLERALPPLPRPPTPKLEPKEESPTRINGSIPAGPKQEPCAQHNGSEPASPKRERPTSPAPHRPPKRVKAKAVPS

Compound: O=C(O)CCNC(=S)NCCCC[C@H](NC(=O)OCc1ccccc1)C(=O)NC1CCSc2ccccc21 (some centres not stated)
IC50 [1]: Not Active | IC50 [6]: Not Active | growth inhibition (GI) (MCF7 [7]): inactive | IC50 [8]: Not Active

Compound: O=C(O)CCC(=S)NCCCC[C@H](NC(=O)OCc1ccccc1)C(=O)Nc1ccccc1
inhibition [9]: inactive | inhibition [10]: inactive

Compound: O=C(O)CC(=S)NCCCC[C@H](NC(=O)OCc1ccccc1)C(=O)Nc1ccccc1
inhibition [9]: inactive | inhibition [10]: inactive | Activity [13]: Active | Activity [14]: Active | Activity [15]: Active | Activity [16]: Active | Activity [17]: Active | inhibition [18]: Active | Activity [19]: Active | Activity [12]: Active | Activity [20]: Active

Now from value to compound, other results behind:

IC50 [1]: Not Active | inhibition [3]: Active | IC50 [4]: Not Active | inhibition [5]: 20%
Compound: CCOC(=O)CCNC(=S)NCCCC[C@H](NC(=O)OCc1ccccc1)C(=O)Nc1cccc(O)c1
inhibition (MCF7 [2]): Dose-dependent effect | inhibition (MDA-MB-231): Dose-dependent effect | inhibition (MDA-MB-468): Dose-dependent effect

IC50 [1]: Not Active | IC50 [6]: Not Active | IC50 [8]: Not Active
Compound: O=C(O)CCNC(=S)NCCCC[C@H](NC(=O)OCc1ccccc1)C(=O)Nc1cccc(O)c1

inhibition [11]: Active
Compound: CCOC(=O)CCNC(=S)NCCCC[C@H](NC(=O)OCc1ccccc1)C(=O)NC1CCSc2ccccc21 (some centres not stated)
growth inhibition (GI) (MCF7 [7]): Active

inhibition [9]: inactive | inhibition [10]: inactive | Activity [12]: inactive
Compound: O=C(O)CCCC(=S)NCCCC[C@H](NC(=O)OCc1ccccc1)C(=O)Nc1ccccc1
